Measurements as given in patent publication US10357036B2, “Compounds for controlling arthropods” (priority 2015, dated 2019).
Read-outs that look alike come from different tables or passages of the source. Blank lines part the entries; values can stand above or below the molecule they belong to.

What was measured:
Meloidogyne incognita = Meloidogyne incognita test; type: in vivo; settings: 20 ppm; after 14 days
Procedure: • Solvent: 125.0 parts by weight of acetone
To produce a suitable active compound preparation, 1 part by weight of active compound is mixed with the stated amount of solvent and the concentrate is diluted to the desired concentration with water.
Vessels are filled with sand, active compound solution, an egg/larvae suspension of the southern root-knot nematode (Meloidogyne incognita) and lettuce seeds. The lettuce seeds germinate and the plants develop. The galls develop on the roots.
After 14 days, the nematicidal efficacy in % is determined by the formation of galls. 100% means that no galls were found; 0% means that the number of galls on the treated plants corresponds to the untreated control.

Tetranychus urticae = Tetranychus urticae spray test, OP-resistant (bean leaf discs); type: in vivo; settings: 100 g/ha; after 6 days
Procedure: (§1) After 6 days, the efficacy in % is determined.

Phaedon cochleariae = Phaedon cochleariae spray test; settings: for efficacy: 100 g/ha, after 7 days; for pest or weed control at 100 g/ha: Phaedon cochleariae, 168 h, read-out: efficacy
Rhipicephalus sanguineus = Rhipicephalus sanguineus in vitro contact test with adult brown dog ticks; type: in vivo; settings: application rate 5 μg/cm^2 (=500 g/ha); after 48 h; dead or moribund ticks
Method in brief: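 Adult Rhipicephalus sanguineus (5-10 per tube) held in glass tubes coated with compound from acetone solution, 900 ppm giving 5 μg/cm^2, in the dark at room temperature. After 48 h ticks put on a 45-50° C hotplate up to 5 min; motionless or uncoordinated ticks scored dead/moribund as % efficacy.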

Boophilus microplus = Boophilus microplus injection test; type: in vivo; settings: 20 μg/animal; assessed after 7 days
Procedure: (§2) • Solvent: dimethyl sulfoxide
1 μl of the active ingredient solution is injected into the abdomen of 5 engorged adult female cattle ticks (Boophilus microplus). The animals are transferred into dishes and kept in a climate-controlled room.

Ctenocephalides felis [1] = assay: Ctenocephalides felis oral test; type: in vivo; settings: 100 ppm in citrated cattle blood; after 2 days
Musca domestica = Musca domestica test; type: in vivo; settings: 100 ppm; adult houseflies; after 2 days
Procedure: as §2
To produce a suitable active ingredient formulation, 10 mg of active ingredient are mixed with 0.5 ml of dimethyl sulfoxide, and the concentrate is diluted with water to the desired concentration.
Vessels containing a sponge treated with sugar solution and the active ingredient formulation of the desired concentration are populated with 10 adult houseflies (Musca domestica).

Spodoptera frugiperda = Spodoptera frugiperda spray test; type: in vivo; settings: 100 g/ha, after 7 days; for pest or weed control at 100 g/ha: Spodoptera frugiperda, 168 h, read-out: efficacy
Ctenocephalides felis [2] = assay: Ctenocephalides felis in vitro contact test with adult cat fleas; type: in vivo; settings: application rate 5 μg/cm^2 (=500 g/ha); after 48 h; dead or moribund fleas
Method in brief: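 Glass tubes were coated with compound in acetone (900 ppm solution gives 5 μg/cm²), dried, then loaded with 5–10 adult cat fleas. Held horizontal at room temperature and ambient humidity for 48 h. Efficacy is the % of fleas dead or moribund (motionless or uncoordinated after knock-down).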

[3] = tested on: cattle ticks (Boophilus microplus) Parkhurst strain, SP-resistant; assay: Boophilus microplus dip test; type: in vivo; settings: 100 ppm; assessed after 7 days
Procedure: • Test animals: cattle ticks (Boophilus microplus) Parkhurst strain, SP-resistant • Solvent: dimethyl sulfoxide
10 mg of active ingredient are dissolved in 0.5 ml of dimethyl sulfoxide. To produce a suitable formulation, the active ingredient solution is diluted with water to the concentration desired in each case.
This active ingredient formulation is pipetted into tubes. 8-10 engorged adult female cattle ticks (Boophilus microplus) are transferred into a further tube with holes. The tube is immersed into the active ingredient formulation, and all the ticks are completely wetted. After the liquid has run out, the ticks are transferred on filter discs into plastic dishes and stored in a climate-controlled room.
Efficacy is assessed after 7 days by laying of fertile eggs. Eggs which are not visibly fertile are stored in a climate-controlled cabinet until the larvae hatch after about 42 days. An efficacy of 100% means that none of the ticks has laid any fertile eggs; 0% means that all the eggs are fertile.

Myzus persicae = Myzus persicae spray test (Chinese cabbage leaf discs); type: in vivo; settings: 100 g/ha; after 6 days
Procedure: as §1

[4] = reversed-phase C18 HPLC column, logP, HPLC, C18, acetonitrile/water with formic acid (note a)
[5] = reversed-phase C18 HPLC column, logP^a, HPLC-MS method a)

Structure (SMILES): CC(=O)NCc1cccc(-c2cnn(-c3c(Cl)cc(C(F)(C(F)(F)F)C(F)(F)F)cc3C#N)c2)c1 [Ia-102]
- nematicidal efficacy (formation of galls) (Meloidogyne incognita): 100%
- efficacy (Tetranychus urticae): 90%
- efficacy (Phaedon cochleariae): 100%

Structure (SMILES): CCC(=O)NCc1c(F)ccc(-c2cnn(-c3c(Cl)cc(C(F)(C(F)(F)F)C(F)(F)F)cc3C(F)F)c2)c1F [Ia-141]
- efficacy (Rhipicephalus sanguineus): 100%
- efficacy (laying of fertile eggs) (Boophilus microplus): 100%
- efficacy (rate of extermination) (Ctenocephalides felis [1]): 100%
- efficacy (rate of extermination) (Musca domestica): 100%
- nematicidal efficacy (formation of galls) (Meloidogyne incognita): 90%
- efficacy (Spodoptera frugiperda): 100%
- efficacy (Tetranychus urticae): 100%
- efficacy (Phaedon cochleariae): 100%

Structure (SMILES): CC(=O)NCc1cc(-c2cnn(-c3c(C)cc(C(F)(C(F)(F)F)C(F)(F)F)cc3Cl)c2)ccc1F [Ia-65]
- efficacy (Ctenocephalides felis [2]): 100%
- efficacy (Rhipicephalus sanguineus): 100%
- efficacy (laying of fertile eggs) [3]: 100%
- efficacy (laying of fertile eggs) (Boophilus microplus): 100%
- efficacy (rate of extermination) (Ctenocephalides felis [1]): 100%
- efficacy (rate of extermination) (Musca domestica): 100%
- efficacy (Myzus persicae): 90%
- efficacy (Spodoptera frugiperda): 100%
- efficacy (Tetranychus urticae): 100%
- efficacy (Phaedon cochleariae): 100%

Structure (SMILES): CC(=O)NCc1c(F)ccc(-c2cnn(-c3c(Cl)cc(C(F)(C(F)(F)F)C(F)(F)F)cc3C(F)F)c2)c1F [Ia-142]
- efficacy (Ctenocephalides felis [2]): 100%
- efficacy (Rhipicephalus sanguineus): 80%
- efficacy (laying of fertile eggs) [3]: 80%
- efficacy (laying of fertile eggs) (Boophilus microplus): 100%
- efficacy (rate of extermination) (Ctenocephalides felis [1]): 100%
- efficacy (rate of extermination) (Musca domestica): 100%
- efficacy (Myzus persicae): 90%
- efficacy (Spodoptera frugiperda): 100%
- efficacy (Tetranychus urticae): 100%
- efficacy (Phaedon cochleariae): 100%

Structure (SMILES): CC(=O)NCc1cc(-c2cnn(-c3c(Cl)cc(C(F)(C(F)(F)F)C(F)(F)F)cc3Cl)c2)ccc1C [Ia-90]
- efficacy (Ctenocephalides felis [2]): 100%
- efficacy (Rhipicephalus sanguineus): 100%
- efficacy (laying of fertile eggs) [3]: 100%
- efficacy (laying of fertile eggs) (Boophilus microplus): 100%
- efficacy (rate of extermination) (Ctenocephalides felis [1]): 100%
- efficacy (rate of extermination) (Musca domestica): 100%
- efficacy (Myzus persicae): 90%
- efficacy (Spodoptera frugiperda): 100%
- efficacy (Tetranychus urticae): 100%
- efficacy (Phaedon cochleariae): 100%

Structure (SMILES): CC(=O)N(C)Cc1cc(-c2cnn(-c3c(Cl)cc(C4(C(F)(F)F)CC4)cc3Cl)c2)ccc1F [Ia-125]
- nematicidal efficacy (formation of galls) (Meloidogyne incognita): 100%

Structure (SMILES): CCC(=O)NC1CCc2ccc(-c3cnn(-c4c(Cl)cc(C(F)(C(F)(F)F)C(F)(F)F)cc4OC(F)(F)F)c3)cc21 (stereo not drawn) [I-Tc-01, N-(6-{1-[2-chloro-4-(1,1,1,2,3,3,3-heptafluoropropan-2-yl)-6-(trifluoromethoxy)phenyl]-1H-pyrazol-4-yl}-2,3-dihydro-1H-inden-1-yl)propanamide]
- efficacy (Rhipicephalus sanguineus): 100%
- efficacy (laying of fertile eggs) (Boophilus microplus): 100%
- efficacy (rate of extermination) (Ctenocephalides felis [1]): 100%
- pest or weed control at 100 g/ha (Spodoptera frugiperda): 100%
- chromatographic logP [4]: 4.84

Structure (SMILES): CC(=O)N(C)Cc1cccc(-c2cnn(-c3c(Cl)cc(C(F)(C(F)(F)F)C(F)(F)F)cc3Cl)c2)c1 [Ia-42]
- efficacy (laying of fertile eggs) (Boophilus microplus): 100%
- efficacy (rate of extermination) (Ctenocephalides felis [1]): 100%
- efficacy (rate of extermination) (Musca domestica): 80%
- nematicidal efficacy (formation of galls) (Meloidogyne incognita): 90%
- efficacy (Tetranychus urticae): 100%
- efficacy (Phaedon cochleariae): 100%

Now from value to molecule, other results behind:

- chromatographic logP [4]: 4.28
- chromatographic logP (reversed-phase C18 HPLC column, logP^a, HPLC-MS method a), reversed-phase column (C18)): 4.33
Structure (SMILES): N#CCC(=O)NCc1cc(-c2cnn(-c3c(Cl)cc(C(F)(C(F)(F)F)C(F)(F)F)cc3Br)c2)ccc1Cl [Ia-137, N-(5-{1-[2-bromo-6-chloro-4-(1,1,1,2,3,3,3-heptafluoropropan-2-yl)phenyl]-1H-pyrazol-4-yl}-2-chlorobenzyl)-2-cyanoacetamide]
- efficacy (Ctenocephalides felis [2]): 100%
- efficacy (laying of fertile eggs) (Boophilus microplus): 100%
- efficacy (rate of extermination) (Ctenocephalides felis [1]): 100%
- efficacy (rate of extermination) (Musca domestica): 100%
- pest or weed control at 100 g/ha (Spodoptera frugiperda): 100%
- efficacy (Tetranychus urticae): 100%
- pest or weed control at 100 g/ha (Phaedon cochleariae): 100%

- chromatographic logP [4]: 4.8
- chromatographic logP [5]: 4.8
Structure (SMILES): O=C(NCc1cc(-c2cnn(-c3c(Cl)cc(C(F)(C(F)(F)F)C(F)(F)F)cc3Cl)c2)ccc1Cl)C1CC1 [Ia-25, N-(2-chloro-5-{1-[2,6-dichloro-4-(1,1,1,2,3,3,3-heptafluoropropan-2-yl)phenyl]-1H-pyrazol-4-yl}benzyl)cyclopropanecarboxamide]
- efficacy (Ctenocephalides felis [2]): 100%
- efficacy (Rhipicephalus sanguineus): 80%
- efficacy (laying of fertile eggs) (Boophilus microplus): 100%
- efficacy (rate of extermination) (Ctenocephalides felis [1]): 100%
- efficacy (rate of extermination) (Musca domestica): 100%
- pest or weed control at 100 g/ha (Spodoptera frugiperda): 100%

- chromatographic logP [4]: 3.52
- chromatographic logP [5]: 3.52
Structure (SMILES): CCC(=O)NCc1cc(-c2cnn(-c3c(Cl)cc(C(F)(C(F)(F)F)C(F)(F)F)cc3[S+](C)[O-])c2)ccc1F (stereo not drawn) [Ia-45, N-(5-{1-[2-chloro-4-(1,1,1,2,3,3,3-heptafluoropropan-2-yl)-6-(methylsulfinyl)phenyl]-1H-pyrazol-4-yl}-2-fluorobenzyl)propanamide]
- pest or weed control at 100 g/ha (Phaedon cochleariae): 100%

- chromatographic logP [4]: 3.65
- chromatographic logP [5]: 3.65
Structure (SMILES): CCC(=O)NCc1cc(-c2cnn(-c3c(Cl)cc(C(F)(C(F)(F)F)C(F)(F)F)cc3S(C)(=O)=O)c2)ccc1F [Ia-46, N-(5-{1-[2-chloro-4-(1,1,1,2,3,3,3-heptafluoropropan-2-yl)-6-(methylsulfonyl)phenyl]-1H-pyrazol-4-yl}-2-fluorobenzyl)propanamide]
- efficacy (Tetranychus urticae): 70%

- chromatographic logP [4]: 3.94
Structure (SMILES): CC(=O)NCc1cc(-c2cn(-c3c(Cl)cc(C(F)(C(F)(F)F)C(F)(F)F)cc3Cl)nn2)ccc1Cl [I-T7-01, N-(2-chloro-5-{1-[2,6-dichloro-4-(1,1,1,2,3,3,3-heptafluoropropan-2-yl)phenyl]-1H-1,2,3-triazol-4-yl}benzyl)acetamide]
- pest or weed control at 100 g/ha (Spodoptera frugiperda): 100%
- efficacy (Tetranychus urticae): 90%
- pest or weed control at 100 g/ha (Phaedon cochleariae): 100%

- chromatographic logP [4]: 4.65
Structure (SMILES): CCS(=O)(=O)NCc1cc(-c2cnn(-c3c(Cl)cc(C(F)(C(F)(F)F)C(F)(F)F)cc3Cl)c2)ccc1Cl [Ic-02, N-(2-chloro-5-{1-[2,6-dichloro-4-(1,1,1,2,3,3,3-heptafluoropropan-2-yl)phenyl]-1H-pyrazol-4-yl}benzyl)ethanesulfonamide]
- pest or weed control at 100 g/ha (Spodoptera frugiperda): 100%
- pest or weed control at 100 g/ha (Phaedon cochleariae): 100%

- chromatographic logP [4]: 4.29
- chromatographic logP [5]: 4.29
Structure (SMILES): CCC(=O)NCc1cc(-c2cnn(-c3c(Cl)cc(C(F)(C(F)(F)F)C(F)(F)F)cc3SC)c2)ccc1F [Ia-10, N-(5-{1-[2-chloro-4-(1,1,1,2,3,3,3-heptafluoropropan-2-yl)-6-(methylsulfanyl)phenyl]-1H-pyrazol-4-yl}-2-fluorobenzyl)propanamide]
- efficacy (Ctenocephalides felis [2]): 100%
- efficacy (Rhipicephalus sanguineus): 100%
- efficacy (laying of fertile eggs) (Boophilus microplus): 100%
- efficacy (rate of extermination) (Ctenocephalides felis [1]): 100%
- efficacy (rate of extermination) (Musca domestica): 100%
- pest or weed control at 100 g/ha (Spodoptera frugiperda): 100%
- efficacy (Tetranychus urticae): 100%
- pest or weed control at 100 g/ha (Phaedon cochleariae): 100%

- chromatographic logP [4]: 5.21
Structure (SMILES): CCS(=O)(=O)N(C)Cc1cc(-c2cnn(-c3c(Cl)cc(C(F)(C(F)(F)F)C(F)(F)F)cc3Cl)c2)ccc1Cl [Ic-03, N-(2-chloro-5-{1-[2,6-dichloro-4-(1,1,1,2,3,3,3-heptafluoropropan-2-yl)phenyl]-1H-pyrazol-4-yl}benzyl)-N-methylethanesulfonamide]
- pest or weed control at 100 g/ha (Spodoptera frugiperda): 100%
- pest or weed control at 100 g/ha (Phaedon cochleariae): 100%
